# Results as given in publication PMC11512107, “Structural and biochemical analysis of ligand binding in yeast Niemann–Pick type C1–related protein” (Life Science Alliance, 2024).
# Key:
# NTD of NCR1 = target: T1, NTD of NCR1 (Saccharomyces cerevisiae, UniProt Q12200); assay: In vitro liposome crosslinking assay of pac-lipids with the NTD; format: binding; details: liposomes with 1.5 mol% pac-lipid (1 μM), 1.5 μM NTD, average ratio
# T1 construct: residues 1–249, UniProt: Q12200; thrombin cleavage site (C); deca-histidine tag (C, cleaved yes); made in house; host or cells: Saccharomyces cerevisiae strain DSY-5
# T1 sequence (Q12200 20-249): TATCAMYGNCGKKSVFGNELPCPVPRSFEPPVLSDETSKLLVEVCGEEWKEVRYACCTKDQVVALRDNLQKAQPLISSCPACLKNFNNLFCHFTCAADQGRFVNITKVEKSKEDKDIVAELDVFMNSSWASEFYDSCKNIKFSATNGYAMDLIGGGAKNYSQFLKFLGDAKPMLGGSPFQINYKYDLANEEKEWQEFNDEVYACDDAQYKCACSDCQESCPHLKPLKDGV
# Description: In a parallel approach, the substrate scope of the NTD and NPC2 was probed with photo-activatable and clickable (pac) lipids. Pac-lipids contain small chemical modifications for click chemistry reactions, with fluorophores such as AF647 (a structural analog of Alexa Fluor 647), and for UV-activated photo-crosslinking, respectively ([45]). In contrast to NBD-tagged lipids delivered in solution, pac-lipids such as pac-cholesterol (pacChol), pac-phosphatidylcholine (pacPC), pac-sphingosine (pacSph), and pac-ceramide (pacCer) were reconstituted in liposomal membranes (Fig 5A and B). As expected, the delipidated NTD crosslinks with pacChol (average +UV/−UV ratio = 2.11). Crosslinking of the NTD with pacSph (+UV/−UV = 1.73) and, to a lesser extent, with pacCer and pacPC (+UV/−UV = 1.40 and 1.12), respectively, was also detected (Fig 5C and D).
# Lipids from stock vials were dissolved in chloroform and mixed at the desired molar ratio. […]
# Extruded liposomes were diluted in PBS until a final lipid concentration of 60 μM, including 1 μM pac-lipid. […] Data were evaluated by subtracting background fluorescence, followed by comparing the AF647 signal between crosslinked and non-crosslinked samples, normalized to protein loading based on Coomassie staining. […] Statistics were calculated with the Mann–Whitney U test.
# NPC2 = target: T2, NPC2 (Saccharomyces cerevisiae, UniProt Q12408); assay: In vitro liposome crosslinking assay of pac-lipids with NPC2; format: binding; details: liposomes with 1.5 mol% pac-lipid (1 μM), 1.5 μM NPC2
# T2 construct: residues 1–173, UniProt: Q12408; thrombin cleavage site (C); deca-histidine tag (C, cleaved yes); made in house; host or cells: Saccharomyces cerevisiae strain DSY-5
# T2 sequence (Q12408 22-173): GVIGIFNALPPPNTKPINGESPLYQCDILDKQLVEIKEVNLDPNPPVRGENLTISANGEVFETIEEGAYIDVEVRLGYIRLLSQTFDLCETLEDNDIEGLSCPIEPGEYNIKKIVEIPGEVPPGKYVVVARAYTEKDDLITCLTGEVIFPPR
# Method: To compare with the interaction profile of the NTD, crosslinking assays were also performed with purified, delipidated NPC2 (Fig S4A and B). […] NPC2 crosslinks well with all tested pac-lipids but, as for the NTD, most strongly with pacChol (+UV/−UV ratio = 1.91). Robust and consistent crosslinking with pacSph (+UV/−UV ratio = 1.64), pacCer (+UV/−UV = 1.67), and pacPC (+UV/−UV = 1.63) were observed. The crosslinking efficiency for cholesterol and sphingosine analogs was higher for the NTD, whereas crosslinking with ceramide and PC analogs seemed stronger with NPC2.
# Lipids from stock vials were dissolved in chloroform and mixed at the desired molar ratio. For in vitro crosslinking, most liposomes consisted of 88.5 mol% DOPC as carrier lipid, 10 mol% DOPS, and 1.5 mol% respective pac-lipid. The pac-lipids were incorporated into liposomes at low concentrations (1.5 mol%) to ensure homogenous distribution and avoid micelle formation. The solvent was evaporated in a rotary evaporator (Hei-VAP Core, Heidolph) for 30 min at 42°C at 150 rpm to create a thin lipid film. Lipid films were hydrated with filtered and degassed PBS (137 mM NaCl, 2.7 mM KCl, 10 mM Na2HPO4, 1.8 mM KH2PO4, pH 7.4). Solutions of hydrated lipids (with a total lipid concentration of 2 mM) were subjected to five freeze–thaw cycles in liquid nitrogen and warm water (42°C) to facilitate breakup of large structures and support formation of smaller multilamellar vesicles. Lipid solutions were stored at −20°C. Before use, liposomes were extruded by passing 20x through a 100-nm pore size polycarbonate filter (Nuclepore; Whatman) using a hand extruder (Avanti Polar Lipids). Extruded liposomes were stored at 4°C, protected from light, and used within 1–2 d.
# Extruded liposomes were diluted in PBS until a final lipid concentration of 60 μM, including 1 μM pac-lipid. Purified proteins were added until a final concentration of 1.5 μM in a reaction volume of 100 μl. Protein–liposome mixtures were incubated in 0.5-ml Eppendorf tubes for 30 min at 37°C at 400 rpm (Comfort thermomixer, Eppendorf), then crosslinked (or not) by exposure to 365-nm UV light for 15 min at 4°C using a 100-W mercury lamp (Blak-Ray B-100AP). After crosslinking, the click reaction was performed by adding 0.7 μl of freshly prepared click mix into the sample tubes. The final concentrations of click reagents in sample tubes were 80 μM CuSO4 (Merck), 3 μM TBTA (Merck), 3 μM AF647-picolyl azide (Jena Bioscience), and 80 μM ascorbic acid (Merck). Fresh stock of ascorbic acid solution in water was prepared every time and added to the click mix immediately before starting the click reaction. Click reactions were allowed to proceed for 2 h at 37°C at 400 rpm with the thermomixer. Then, samples were concentrated in a vacuum evaporator for 30 min set to 30°C and supplemented with 4x Lämmli buffer (250 mM Tris, pH 6.8, 9.2% SDS, 40% glycerol, 0.2% bromophenol blue, 100 mM DTT). Samples were boiled for 5 min at 95°C, and clicked protein–lipid complexes were resolved by SDS–PAGE. After extensive destaining in a destain solution (65% water, 25% isopropanol, and 10% acetic acid), the AF647 (a structural analog of Alexa Fluor 647) and Coomassie images were acquired using the LI-COR Odyssey imaging system. Data were evaluated by subtracting background fluorescence, followed by comparing the AF647 signal between crosslinked and non-crosslinked samples, normalized to protein loading based on Coomassie staining. The resulting values are described as +UV/−UV ratios. Statistics were calculated with the Mann–Whitney U test.
# NPC2 to the NTD = target: T3, NPC2 to the NTD (Saccharomyces cerevisiae, UniProt Q12200); assay: In vitro pac-lipid transfer assay from NPC2 to the NTD; format: biochemical; details: His-tagged NPC2 preloaded with soluble pac-lipid; GFP baseline, STARD3 negative control
# T3 construct: residues 1–249, UniProt: Q12200; residues 1–173, UniProt: Q12408; deca-histidine tag (C, cleaved yes); made in house; host or cells: Saccharomyces cerevisiae strain DSY-5
# T3 sequence (Q12200 20-249): as the sequence (Q12200 20-249) above
# Description: The consistent interaction of sphingosine with both the NTD and NPC2 observed in this study inspired us to examine whether the transfer of pacSph between the two proteins could be reconstituted in vitro. To this end, a protein-to-protein sphingosine transfer assay using solubilized, free pacSph was designed (Fig 6A). […] As a control for specificity of transfer, the lipid binding domain of a mammalian STARD3 (His-STARD3-StART) was used because this protein was previously shown to interact with sphingosine in related work ([51] Preprint), but it is not located inside lysosomes and, therefore, is not expected to interact with the NTD. His-tagged NPC2, His-sfGFP, or His-STARD3-StART were immobilized on NiNTA beads, preloaded with pacSph, and incubated with the NTD. After removal of the beads, the NTD was subjected to UV crosslinking and clicked with a fluorophore, and the resulting lipid–protein complexes were visualized by SDS–PAGE.
# Purified His-tagged proteins (5 μM of sfGFP, STARD3, or NPC2) were incubated with 10 μM pacSph in PBS for 60 min at 25°C at 500 rpm (Comfort thermomixer, Eppendorf). Next, the His-tagged proteins were captured on NiNTA beads and washed 5x with PBS to remove unbound pacSph. […] For data analysis, the background was subtracted and the +UV/−UV ratios were quantified for each sample as described previously. […] Statistics were calculated with the Mann–Whitney U test.
structure (smiles),measurement,setting,value
C#CCCCC1(CCCCCCCC/C=C/[C@H](O)[C@H](N)CO)N=N1 [pacSph],+UV/−UV ratio (crosslinking with NTD),NTD of NCR1,1.73
same,+UV/−UV ratio (crosslinking with NPC2),NPC2,1.64
same,transfer of pac-lipid from NPC2 to the NTD (crosslinking with NTD),NPC2 to the NTD,increased crosslinking
